Measured values taken from ChEMBL document CHEMBL1201862, “PubChem BioAssay data set” (2004).
Structures can show the parent of a compound that is named as a salt. Activity calls are given as the source filed them.

Tests used:
[1] = system: SN12K1; test: cells; format: functional; details: Homo sapiens
[2] = system: P388/ADR; test: cells; format: functional; details: Mus musculus
[3] = system: P388; test: cells; format: functional; details: Mus musculus
[4] = system: Vero; test: cells; format: functional; details: Chlorocebus sabaeus
[5] = molecular target: Cytochrome P450 3A4 (Homo sapiens, UniProt P08684); details: Potency;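 note: confirmatory qHTS run detecting inhibitors and substrates of CYP3A4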
Sequence of Cytochrome P450 3A4 (P08684 whole entry): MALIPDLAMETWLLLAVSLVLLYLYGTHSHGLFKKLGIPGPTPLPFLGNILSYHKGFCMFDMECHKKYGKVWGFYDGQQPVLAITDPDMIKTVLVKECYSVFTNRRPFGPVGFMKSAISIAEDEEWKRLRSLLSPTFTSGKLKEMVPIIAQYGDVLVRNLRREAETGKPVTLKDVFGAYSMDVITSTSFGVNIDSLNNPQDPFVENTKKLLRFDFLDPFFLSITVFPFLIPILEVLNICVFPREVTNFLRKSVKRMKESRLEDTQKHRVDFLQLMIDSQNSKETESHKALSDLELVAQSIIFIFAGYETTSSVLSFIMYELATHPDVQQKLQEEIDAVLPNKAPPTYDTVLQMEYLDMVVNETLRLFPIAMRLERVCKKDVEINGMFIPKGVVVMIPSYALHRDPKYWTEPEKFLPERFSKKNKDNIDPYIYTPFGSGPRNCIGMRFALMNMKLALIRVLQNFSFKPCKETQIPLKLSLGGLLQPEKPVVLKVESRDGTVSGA

[6] = growth suppression of PTEN-null colon cells, dose response, cell-based, HCT116 PTEN knockout (AID 1047); format: functional;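 note: HCT116 colon tumor cells with PTEN knocked out; cells exposed to compound for 60 hours before readout; potency for loss of cell viability measured by luminescence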
[7] = growth suppression of beta-catenin-knockout colon cells, dose response, cell-based, HCT116, human colon tumor (AID 1045); format: functional;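 note: HCT116 colon tumor cells with beta catenin knocked out; cells exposed to compound for 60 hours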
[8] = cytotoxicity in KRAS-transformed pancreatic duct cells, primary screen, cell-based, fluorescence, HTS (AID 431); format: functional; details: Homo sapiens;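 note: cell line used: HPDE-C7K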
[9] = cytotoxicity in HPDE-C7 cells, cell-based, fluorescence, HTS (AID 430); format: functional; details: Homo sapiens
[10] = molecular target: Eukaryotic translation initiation factor 4E (Mus musculus, UniProt P63073); test: eIF4E–eIF4G protein interaction inhibitors, dose response, biochemical, TR-FRET (AID 855); format: functional;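 note: potency for disrupting eIF4E binding to eIF4GI seen as loss of FRET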
Sequence of Eukaryotic translation initiation factor 4E (P63073 whole entry): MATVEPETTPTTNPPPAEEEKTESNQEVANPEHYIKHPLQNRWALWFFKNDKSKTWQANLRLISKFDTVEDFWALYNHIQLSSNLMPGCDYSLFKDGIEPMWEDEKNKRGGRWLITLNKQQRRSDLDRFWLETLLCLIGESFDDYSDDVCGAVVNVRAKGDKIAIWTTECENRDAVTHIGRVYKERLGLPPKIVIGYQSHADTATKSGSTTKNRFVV

[11] = Luminescence Cell-Based Dose Retest to Confirm Inhibitors of Cancer Stem Cells. [Related pubchem assays (depositor defined):AID2717, AID2721]; format: functional; details: Homo sapiens
[12] = control 3'UTR Renilla luciferase suppression, dose response, counter-screen for Shn3 inhibitor project, cell-based, Clone20-Shn3RL, cherry-picked (AID 624133); format: functional
[13] = molecular target: T1, Endoribonuclease toxin MazF (Escherichia coli K-12, UniProt P0AE70); test: MazF toxin RNase activators, dose response, biochemical, fluorescence, single-stranded RNA substrate, uHTS hits (AID 588481); format: functional
T1 sequence (P0AE70 whole entry): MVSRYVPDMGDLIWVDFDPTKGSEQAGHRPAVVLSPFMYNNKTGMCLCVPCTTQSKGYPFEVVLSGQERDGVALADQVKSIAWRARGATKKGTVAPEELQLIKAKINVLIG

[14] = molecular target: T1, Endoribonuclease toxin MazF; test: fluorescent RNA oligo signal without MazF, dose response, counter-screen for MazEF activator project, biochemical, fluorescence, single-stranded RNase substrate (AID 588502); format: functional
[15] = Shn3 3'UTR reporter inhibitors, dose response, cell-based, Clone20 osteoblasts, firefly luciferase, cherry-picked (AID 624132); format: functional;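 note: firefly luciferase luminescence from reporter carrying the Shn3 3'UTR in osteoblasts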
[16] = cells; format: functional
[17] = molecular target: T2, Carboxy-terminal domain RNA polymerase II polypeptide A small phosphatase 1 (Homo sapiens, UniProt Q9GZU7); test: inhibitors of CTDSP1, concentration-response testing, biochemical assay, absorbance-based, actives from ultra-high-throughput screening (AID 540297); format: functional
T2 sequence (Q9GZU7 whole entry): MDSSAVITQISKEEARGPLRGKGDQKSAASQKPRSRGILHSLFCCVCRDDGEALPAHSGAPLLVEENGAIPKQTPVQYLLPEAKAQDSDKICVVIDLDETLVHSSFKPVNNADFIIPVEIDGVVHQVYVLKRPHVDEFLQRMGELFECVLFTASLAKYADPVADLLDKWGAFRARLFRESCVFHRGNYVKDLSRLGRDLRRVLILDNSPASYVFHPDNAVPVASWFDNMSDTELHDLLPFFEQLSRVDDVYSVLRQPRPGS

[18] = molecular target: T3, Ubiquitin-conjugating enzyme E2 N (Homo sapiens, UniProt P61088); format: functional;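 note: Dose-response confirmation in a TR-FRET assay detecting UBC13-driven polyubiquitin chain formation, inhibition measured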
T3 sequence (P61088 whole entry): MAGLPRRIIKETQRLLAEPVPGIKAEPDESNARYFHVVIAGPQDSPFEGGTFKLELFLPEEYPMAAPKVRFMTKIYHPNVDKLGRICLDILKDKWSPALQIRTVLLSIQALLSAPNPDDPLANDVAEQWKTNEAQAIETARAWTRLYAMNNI

[19] = HepG2 cell cytotoxicity, dose response, cytotoxicity control for Shn3 inhibitor project, CellTiter-Glo, cherry-picked (AID 624134); format: functional, cell-based
[20] = THP-1 cell cytotoxicity, dose response, cytotoxicity control for non-replicating M. tuberculosis project (AID 489025); format: functional
[21] = molecular target: T4, Calpain-2 catalytic subunit (Sus scrofa, UniProt P43367); test: pig calpain II inhibitor potency, dose response, biochemical, fluorogenic peptide substrate (AID 1420); format: functional
T4 sequence (P43367 whole entry): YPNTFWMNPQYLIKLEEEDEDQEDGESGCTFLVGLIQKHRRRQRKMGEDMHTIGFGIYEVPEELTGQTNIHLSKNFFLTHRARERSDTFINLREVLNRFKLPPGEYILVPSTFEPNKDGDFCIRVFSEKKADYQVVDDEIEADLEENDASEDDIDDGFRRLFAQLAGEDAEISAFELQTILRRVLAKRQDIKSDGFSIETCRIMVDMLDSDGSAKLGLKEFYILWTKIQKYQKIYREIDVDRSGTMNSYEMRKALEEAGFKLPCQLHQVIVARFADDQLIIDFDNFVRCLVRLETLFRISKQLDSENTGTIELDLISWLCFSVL

[22] = cells
[23] = HEp-2 cell cytotoxicity, dose response, cytotoxicity control for RSV inhibitor project, HTS (AID 2410); format: functional; details: human respiratory syncytial virus
[24] = molecular target: Cytochrome P450 2D6 (Homo sapiens, UniProt P10635);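 note: CYP2D6 member of a cytochrome P450 panel assay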
Sequence of Cytochrome P450 2D6 (P10635 whole entry): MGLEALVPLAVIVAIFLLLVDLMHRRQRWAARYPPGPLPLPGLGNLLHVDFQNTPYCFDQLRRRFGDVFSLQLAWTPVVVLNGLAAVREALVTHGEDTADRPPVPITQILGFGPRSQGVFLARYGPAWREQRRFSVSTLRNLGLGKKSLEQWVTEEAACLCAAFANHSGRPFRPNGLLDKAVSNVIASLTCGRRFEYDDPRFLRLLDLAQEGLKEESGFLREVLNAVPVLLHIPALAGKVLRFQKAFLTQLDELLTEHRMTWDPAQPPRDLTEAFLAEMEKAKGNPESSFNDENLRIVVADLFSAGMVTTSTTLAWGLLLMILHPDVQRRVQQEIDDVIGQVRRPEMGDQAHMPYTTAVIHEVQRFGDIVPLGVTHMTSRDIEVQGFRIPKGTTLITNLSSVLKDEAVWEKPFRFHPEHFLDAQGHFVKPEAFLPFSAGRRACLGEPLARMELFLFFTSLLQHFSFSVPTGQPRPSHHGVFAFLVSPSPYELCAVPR

[25] = molecular target: T5, Polyadenylate-binding protein 1 (Homo sapiens, UniProt P11940); test: PABP1 MLLE–PAM2 binding inhibitor potency, dose response, biochemical, fluorescence polarization, FITC-PAM2 peptide (AID 602259); format: functional; details: read-out: IC50_Mean
T5 sequence (P11940 whole entry): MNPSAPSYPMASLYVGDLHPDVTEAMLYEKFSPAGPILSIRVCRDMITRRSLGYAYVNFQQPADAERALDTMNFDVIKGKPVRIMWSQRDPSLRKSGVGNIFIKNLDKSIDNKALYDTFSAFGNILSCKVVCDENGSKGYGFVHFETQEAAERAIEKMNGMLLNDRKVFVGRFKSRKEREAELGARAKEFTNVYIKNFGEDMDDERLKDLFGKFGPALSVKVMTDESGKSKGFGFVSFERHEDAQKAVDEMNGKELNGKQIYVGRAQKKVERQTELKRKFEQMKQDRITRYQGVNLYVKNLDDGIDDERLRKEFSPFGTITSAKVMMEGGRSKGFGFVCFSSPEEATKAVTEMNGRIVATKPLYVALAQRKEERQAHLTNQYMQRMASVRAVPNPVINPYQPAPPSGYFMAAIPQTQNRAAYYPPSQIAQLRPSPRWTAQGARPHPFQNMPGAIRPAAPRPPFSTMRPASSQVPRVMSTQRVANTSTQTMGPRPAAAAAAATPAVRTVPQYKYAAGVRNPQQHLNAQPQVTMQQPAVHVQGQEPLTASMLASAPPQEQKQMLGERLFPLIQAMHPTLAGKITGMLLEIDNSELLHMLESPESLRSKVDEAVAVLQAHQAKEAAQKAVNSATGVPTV

[26] = molecular target: T5, Polyadenylate-binding protein 1; test: PABP1 MLLE–PAM2 interaction inhibitors, dose response, miRNA deadenylation inhibitor project, biochemical, fluorescence polarization, Cy5-PAM2 peptide, secondary (AID 602260); format: functional; details: read-out: IC50_Mean
[27] = molecular target: T6, DNA repair protein RAD52 homolog (Homo sapiens, UniProt P43351); format: functional, biochemical
T6 sequence (P43351 whole entry): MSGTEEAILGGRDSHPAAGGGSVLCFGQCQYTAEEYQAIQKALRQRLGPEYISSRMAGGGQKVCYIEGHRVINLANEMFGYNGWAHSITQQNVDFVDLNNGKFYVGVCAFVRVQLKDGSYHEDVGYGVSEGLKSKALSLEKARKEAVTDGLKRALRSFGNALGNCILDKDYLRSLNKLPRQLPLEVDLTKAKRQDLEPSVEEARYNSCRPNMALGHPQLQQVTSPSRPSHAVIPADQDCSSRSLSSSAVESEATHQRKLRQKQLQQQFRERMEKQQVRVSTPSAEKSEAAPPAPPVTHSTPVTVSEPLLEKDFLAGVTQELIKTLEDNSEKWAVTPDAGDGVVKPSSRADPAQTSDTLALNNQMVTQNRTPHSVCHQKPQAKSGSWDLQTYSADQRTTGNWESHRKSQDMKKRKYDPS

Nc1c(S(=O)(=O)O)cc2cc(S(=O)(=O)O)ccc2c1/N=N/c1ccc(-c2ccc(/N=N/c3c(N)c(S(=O)(=O)O)cc4cc(S(=O)(=O)O)ccc34)c(S(=O)(=O)O)c2)cc1
GI50 [1]: > 100 µM (inactive) | GI50 [2]: > 100 µM (inactive) | GI50 [3]: > 79.6 µM (inactive)

CN1CCN(CC(O)(c2ccc(Cl)cc2)c2ccc(Cl)cc2)CC1
CC50 [4]: > 25 µM (active)

CN(Cc1cnc2nc(N)nc(N)c2n1)c1ccc(C(=O)NC(CCC(=O)O)C(=O)O)c2ccccc12 (stereo not given)
GI50 [1]: 0.01 µM (active) | GI50 [2]: < 0.01 µM (active) | GI50 [3]: < 0.01 µM (active)

Cn1c(=O)cc(N)n(Cc2ccccc2)c1=O
AC50 [5]: 39.8 µM (inconclusive)

Cc1cc(-c2ccc(C(C)C)c(S(=O)(=O)NCc3ccco3)c2)on1
CC50 [4]: 6.78 µM (active)

CC1(C)Cc2c(C#N)c(N3CCN(C(=O)c4ccco4)CC3)nc(Cc3ccccc3)c2CO1
EC50 [6]: 23.3 µM (active) | EC50 [7]: 26 µM (active) | EC50 [8]: 11.8 µM (active) | EC50 [9]: 17.2 µM (active)

O=C(Nc1ccc(CN2CCOCC2)cc1)c1ccc(-c2ccc(Cl)cc2Cl)o1
IC50 [10]: 50 µM (inactive) | AC50 [11]: 5.22 µM (active)

CCC(=O)c1cn(CC(=O)Nc2ccccc2Cl)c2ccccc12
AC50 [12]: 6.05 µM (active) | EC50 [13]: > 99 µM (inactive) | EC50 [14]: > 99 µM (inactive) | AC50 [15]: < 0.26 µM (active)

O=c1oc(/C=C/c2ccc([N+](=O)[O-])s2)nc2ccccc12
EC50 [13]: > 99 µM (inactive) | EC50 [14]: > 99 µM (inactive) | IC50 [16]: 10.7 µM (active)

CCOC(=O)C(C)Sc1ccc2nnc(-c3ccc(F)cc3)n2n1 (stereo not given)
IC50 [10]: > 64 µM (inactive)

O=C1NC(=S)NC(=O)C1=Cc1ccc(OCC(=O)N2CCCC2)cc1
IC50 [17]: 9 µM (active)

COc1cccc(N)c1
AC50 [5]: 31.6 µM (inconclusive)

CCN(CC)CCCCn1c(-c2ccccc2)nc2c(N3CCOCC3)nc(C)nc21
AC50 [5]: 7.94 µM (inconclusive)

CCC1=C2CC[C@H]3C(=O)N(CC(=O)OC)C(=O)[C@H]3[C@H]2[C@@]2(C)/C(=N/CC(=O)OC)OC(=O)N2C1=O
AC50 [5]: 25.1 µM (inconclusive)

Cc1nnc(SCC2=C(C(=O)O)N3C(=O)C(NC(=O)Cn4nc(C(F)F)cc4C)C3SC2)s1 (stereo not given)
IC50 [17]: 7.83 µM (active)

Cc1ccc(S(=O)(=O)N2CCN(C(=O)/C=C/c3ccco3)CC2)cc1
IC50 [17]: 10.2 µM (active)

O=C(Nc1cccc(F)c1)c1cc(S(=O)(=O)NCCC2=CCCCC2)ccc1F
IC50 [18]: > 20 µM (inactive) | AC50 [12]: 13.9 µM (active) | AC50 [15]: 4.16 µM (active) | AC50 [19]: 39.8 µM (active)

CC(C)Cn1c(N)c(C(=O)COC(=O)c2cnc(Cl)c(Cl)c2)c(=O)n(C)c1=O
CC50 [20]: 25.7 µM (active) | IC50 [21]: 15.3 µM (not active) | IC50 [16]: 13.2 µM (active)

O=C(CCCOc1ccc(Cl)cc1Cl)Nc1ccccc1C(=O)O
IC50 [22]: 5.66 µM (active) | CC50 [23]: 9.45 µM (active)

O=[N+]([O-])c1ccc(Cl)c(S(=O)(=O)Nc2cccc(-c3ccc(N4CCOCC4)nn3)c2)c1
IC50 [22]: 32.5 µM (active) | CC50 [23]: 37.3 µM (active)

Cc1cccc2sc(NC(=O)CN(C)S(=O)(=O)c3ccc(Br)s3)nc12
EC50 [8]: 12.2 µM (active) | EC50 [9]: 12.2 µM (active)

COc1ccccc1N1CCN(S(=O)(=O)Cc2ccccc2Cl)CC1
IC50 [10]: > 64 µM (inactive)

C#CCN1C(=O)S/C(=C\c2cc3c(cc2OC)OCO3)C1=O
EC50 [13]: 12.5 µM (active) | EC50 [14]: 17.1 µM (active)

CCC(=O)NC(=S)Nc1ccc(NC(=O)c2ccc([N+](=O)[O-])cc2)cc1
IC50 [10]: > 64 µM (inactive)

Cc1c(CCC(=O)O)c(=O)oc2cc(OCc3ccc(Br)cc3)ccc12
IC50 [17]: 7.23 µM (active)

CNc1[nH]c(=O)[nH]c(=O)c1N=Nc1cc(Cl)ccc1Cl
IC50 [17]: 11.6 µM (active)

Cc1c2cc[n+](CCN3CCCCC3)cc2c(C)c2c1[nH]c1ccc(O)cc12
AC50 [24]: 5.01 µM (inconclusive) | GI50 [1]: 1.5 µM (inactive) | GI50 [2]: 1.37 µM (inactive) | GI50 [3]: 0.0111 µM (active)

COc1cc2cc3c4cc(OC)c(OC)cc4cc[n+]3cc2cc1OC
GI50 [1]: > 61.9 µM (inactive) | GI50 [2]: 12.6 µM (inactive) | GI50 [3]: 0.881 µM (active)

c1ccc(C(c2ccccc2)[P+](c2ccccc2)(c2ccccc2)c2ccccc2)cc1
GI50 [1]: 0.345 µM (active) | GI50 [2]: 12.4 µM (inactive) | GI50 [3]: 0.382 µM (active)

CSc1nc(SC)c2cnn(CC3CO3)c2n1 (stereo not given)
GI50 [1]: 8.2 µM (inactive) | GI50 [2]: 11.5 µM (inactive) | GI50 [3]: 15.6 µM (inactive)

COc1cccc2c1C(=O)c1c(O)c3c(c(O)c1C2=O)CC(O)(C(=O)CO)CC3OC1CC(N)C(I)C(C)O1 (stereo not given)
GI50 [2]: 0.547 µM (active) | GI50 [3]: 0.0612 µM (active)

COC(=O)CCCCCN1C(=O)NC(c2ccccc2)C(C(=O)OCc2ccccc2)=C1C (stereo not given)
AC50 [5]: 10 µM (inconclusive)

Cc1ccc(-c2ccc(/C=N/O)o2)cc1[N+](=O)[O-]
IC50 [22]: 33.5 µM (active) | CC50 [23]: 36.3 µM (active)

CCCNC(=O)N1c2ccccc2Sc2ccccc21
CC50 [4]: > 25 µM (active)

NCCc1cc(O)c(O)cc1O [OXIDOPAMINE HYDROCHLORIDE]
IC50 [25]: > 66 µM (inactive) | IC50 [26]: > 66 µM (inactive) | AC50 [27]: 4.12 µM (active)
